Key:
[1] = tested on: STZ induced diabetic rats; assay: STZ induced diabetic study, fasting blood glucose; type: in vivo, Male Wistar rats; conditions: for Fasting Blood Glucose (FBG): Mean ± SD, n=4
Method: (§1) Male Wistar rats weighing between 200 and 250 g were used for the studies. The animals were kept in animal cages with free access to standard pellet food and water at a temperature of 23±2° C., a 12-hour cycle of darkness and light, and a relative humidity of roughly 45 to 65%. The Institutional Animal Ethics Committee (IAEC) authorized the protocol, and the animal experiments were carried out in accordance with it as well as the Indian regulations established by the Committee for the Purpose of Control and Supervision of Experimental Animals (CPCSEA), New Delhi.
An intraperitoneal injection of streptozotocin (STZ, 55 mg/kg of body weight) was used to cause diabetes. STZ was dissolved in 0.1 mol/L citrate buffer, pH 4.5, and injected into the peritoneal cavity. The fasting blood glucose concentration (FBG) was used for diagnosis of diabetes. Animals having blood glucose level greater than 16.7 mmol/L after 24 hours were deemed diabetic. These animals were further selected for the study.
The animals (n=4) were divided into four groups. • Group 1: treated with vehicle (distilled water) vehicle control; • Group 2: treated with vehicle (drinking water and STZ) diabetic control; • Group 3: treated with metformin (10 mg/kg body weight/day in drinking water) diabetic test; and • Group 4: treated with Biguanide of Ibuprofen (10 mg/kg body weight/day in drinking water) diabetic test.
The treatment with metformin and Biguanide of Ibuprofen was given for 14 days. And at the end of treatment fasting blood glucose estimation was performed.

CAR-induced paw edema = CAR-induced paw edema anti-inflammatory study; type: in vivo, Male Wistar rats; conditions: for water volume displacement digital plethysmometer (paw volume): 5 mg/kg i.p., Mean ± SD, n=4
Method: as §1
In the second experiment, the anti-inflammatory effect of Biguanide of Ibuprofen in comparison Ibuprofen was assessed by CAR-induced paw edema. The experimental groups were designed as follows (n=4 per group): • Group 1. Control group: 100 μl saline (i.d.)+saline (i.p.), • Group 2. CAR group: 100 μl CAR (i.d.)+saline (i.p.), • Group 3. Ibuprofen 5 mg/kg group: 100 μl CAR (i.d.)+5 mg/kg Ibuprofen (i.p.), • Group 4. Biguanide of Ibuprofen 5 mg/kg group: 100 μl CAR (i.d.)+5 mg/kg Biguanide of Ibuprofen (i.p.),
Carrageenan (100 μl) was injected by i.d. route per rat into the right hind paw. The rats were injected with i.p. Ibuprofen (5 mg/kg), and Biguanide of Ibuprofen (5 mg/kg) immediately after CAR injection. Saline was given to the control group. The paw volume was measured plethysmographically at 0 min, 30 min, 60 min, 90 min, 120 min, 180 min and 240 min. The 0th min reading was considered as the initial paw size of the rats. The change in the paw volume in the test groups was compared with the untreated control groups. The reduction in paw volume (mL) with the help of water plethysmometer was recorded.

[2] = Day 7, 10 mg/kg body weight/day in drinking water
[3] = Day 14, 10 mg/kg body weight/day in drinking water

SMILES | Effect on FBG levels in diabetic rats (in words) ([1]; 10 mg/kg/day, 14 days) | Fasting Blood Glucose (FBG) [1, 2] [mmol/L] | Fasting Blood Glucose (FBG) [1, 3] [mmol/L] | Reduction in FBG compared to metformin (in words) ([1]; both 10 mg/kg/day, 14 days) | water volume displacement digital plethysmometer (paw volume) (CAR-induced paw edema; 0 min (initial paw size)) [mL] | water volume displacement digital plethysmometer (paw volume) (CAR-induced paw edema; 30 min after CAR) [mL] | water volume displacement digital plethysmometer (paw volume) (CAR-induced paw edema; 60 min after CAR) [mL] | water volume displacement digital plethysmometer (paw volume) (CAR-induced paw edema; 90 min after CAR) [mL] | water volume displacement digital plethysmometer (paw volume) (CAR-induced paw edema; 120 min after CAR) [mL] | water volume displacement digital plethysmometer (paw volume) (CAR-induced paw edema; 180 min after CAR) [mL] | water volume displacement digital plethysmometer (paw volume) (CAR-induced paw edema; 240 min after CAR) [mL] | Paw volume compared to Ibuprofen (in words) (CAR-induced paw edema; CAR-induced paw edema, both 5 mg/kg i.p.)
CC(C)Cc1ccc(C(C)C(=O)NNC(=N)NC(=N)N)cc1 (centres unmarked) [Biguanide of Ibuprofen, N-carbamimidoyl-2-(2-(4-isobutylphenyl)propanoyl) hydrazine-1-carboximidamide] | significant lowering of FBG levels | 22.93 ± 0.97 | 6.38 ± 0.86 | more marked reduction in FBG when compared to metformin | 0.692 ± 0.012 | 0.853 ± 0.016 | 0.940 ± 0.013 | 0.875 ± 0.021 | 0.815 ± 0.015 | 0.740 ± 0.018 | 0.710 ± 0.011 | significantly decreased paw volume, when compared to that of the Ibuprofen
CN(C)C(=N)N=C(N)N [metformin, 3-(diaminomethylidene)-1,1-dimethylguanidine, reference compound] |  | 22.77 ± 1.12 | 10.27 ± 1.21 |  |  |  |  |  |  |  |  | 
